From PubChem BioAssay (NCI)
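Step 1: Grow cells in 96-well plates. Step 2: Expose to compound for 48 hours at 5 concentrations. Step 3: Interpolate endpoints linearly; if unreached, use highest concentration. Here, GI50 denotes the concentration required for 50% inhibition of growth. TGI denotes the concentration required for complete inhibition of growth.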

Key:
Assay in all cases: NCI-60 cell line screen, 48 h
OVCAR-8 ovarian = tested on: OVCAR-8 ovarian
HCC-2998 colon = tested on: HCC-2998 colon
LOX IMVI melanoma = tested on: LOX IMVI melanoma
M14 melanoma = tested on: M14 melanoma
OVCAR-5 ovarian = tested on: OVCAR-5 ovarian
T-47D breast = tested on: T-47D breast
SK-MEL-2 melanoma = tested on: SK-MEL-2 melanoma
SW-620 colon = tested on: SW-620 colon
SNB-19 CNS = tested on: SNB-19 CNS
UACC-62 melanoma = tested on: UACC-62 melanoma
HCT-15 colon = tested on: HCT-15 colon
SF-268 CNS = tested on: SF-268 CNS
TK-10 renal = tested on: TK-10 renal
786-0 renal = tested on: 786-0 renal
NCI-H23 lung = tested on: NCI-H23 lung
RXF 393 renal = tested on: RXF 393 renal
EKVX NSCLC = tested on: EKVX NSCLC
MDA-MB-435 = tested on: MDA-MB-435
NCI-H226 lung = tested on: NCI-H226 lung
SF-539 CNS = tested on: SF-539 CNS
SK-OV-3 ovarian = tested on: SK-OV-3 ovarian
BT-549 breast = tested on: BT-549 breast
NCI/ADR-RES ovarian = tested on: NCI/ADR-RES ovarian
OVCAR-3 ovarian = tested on: OVCAR-3 ovarian
SNB-75 CNS = tested on: SNB-75 CNS
MOLT-4 leukemia = tested on: MOLT-4 leukemia
PC-3 prostate = tested on: PC-3 prostate
HL-60(TB) leukemia = tested on: HL-60(TB) leukemia
CCRF-CEM leukemia = tested on: CCRF-CEM leukemia
A498 renal = tested on: A498 renal
NCI-H522 lung = tested on: NCI-H522 lung
SN12C renal = tested on: SN12C renal
UACC-257 melanoma = tested on: UACC-257 melanoma
MCF7 breast = tested on: MCF7 breast
OVCAR-4 ovarian = tested on: OVCAR-4 ovarian
NCI-H460 lung = tested on: NCI-H460 lung
MALME-3M melanoma = tested on: MALME-3M melanoma
HT29 colon = tested on: HT29 colon
SK-MEL-5 melanoma = tested on: SK-MEL-5 melanoma
U251 CNS = tested on: U251 CNS
COLO 205 colon = tested on: COLO 205 colon
A549 NSCLC = tested on: A549 NSCLC
SK-MEL-28 melanoma = tested on: SK-MEL-28 melanoma
CAKI-1 renal = tested on: CAKI-1 renal
SF-295 CNS = tested on: SF-295 CNS
KM12 colon = tested on: KM12 colon
K-562 leukemia = tested on: K-562 leukemia
UO-31 renal = tested on: UO-31 renal
RPMI-8226 leukemia = tested on: RPMI-8226 leukemia
HS 578T breast = tested on: HS 578T breast
DU-145 prostate = tested on: DU-145 prostate
IGROV1 ovarian = tested on: IGROV1 ovarian
HCT-116 colon = tested on: HCT-116 colon
HOP-92 NSCLC = tested on: HOP-92 NSCLC
HOP-62 NSCLC = tested on: HOP-62 NSCLC
SR leukemia = tested on: SR leukemia
MDA-MB-231 breast = tested on: MDA-MB-231 breast
ACHN renal = tested on: ACHN renal
MDA-MB-468 breast = tested on: MDA-MB-468 breast

## C=CC(=O)Nc1nc(-c2cccc(NS(=O)(=O)c3cccc4c(N(C)C)cccc34)c2)cs1
OVCAR-8 ovarian
  GI50: 7.94 µM
  TGI: 22.5 µM
HCC-2998 colon
  GI50: 9.22 µM
  TGI: 18.7 µM
LOX IMVI melanoma
  GI50: 1.61 µM
  TGI: 4.24 µM
M14 melanoma
  GI50: 4.34 µM
  TGI: 16 µM
OVCAR-5 ovarian
  GI50: 9.28 µM
  TGI: 18.6 µM
T-47D breast
  GI50: 4.64 µM
  TGI: 17.7 µM
SK-MEL-2 melanoma
  GI50: 9.35 µM
  TGI: 19.3 µM
SW-620 colon
  GI50: 2.49 µM
  TGI: 10.2 µM
SNB-19 CNS
  GI50: 10.2 µM
  TGI: 19.8 µM
UACC-62 melanoma
  GI50: 3.74 µM
  TGI: 13.1 µM
HCT-15 colon
  GI50: 2.77 µM
  TGI: 11 µM
SF-268 CNS
  GI50: 5.92 µM
  TGI: 18.2 µM
TK-10 renal
  GI50: 3.07 µM
  TGI: 10.6 µM
786-0 renal
  GI50: 2.6 µM
  TGI: 11.7 µM
NCI-H23 lung
  GI50: 10.4 µM
  TGI: 20.8 µM
RXF 393 renal
  GI50: 2.74 µM
  TGI: 11.7 µM
EKVX NSCLC
  GI50: 10.5 µM
  TGI: 20.5 µM
MDA-MB-435
  GI50: 3.02 µM
  TGI: 13.9 µM
NCI-H226 lung
  GI50: 10.9 µM
  TGI: 25.8 µM
SF-539 CNS
  GI50: 1.79 µM
  TGI: 6.03 µM
SK-OV-3 ovarian
  GI50: 14 µM
  TGI: 25.9 µM
BT-549 breast
  GI50: 2.72 µM
  TGI: 9.07 µM
NCI/ADR-RES ovarian
  GI50: 3.78 µM
  TGI: 18.3 µM
OVCAR-3 ovarian
  GI50: 2.1 µM
  TGI: 10.5 µM
SNB-75 CNS
  GI50: 1.86 µM
  TGI: 10.1 µM
MOLT-4 leukemia
  GI50: 2.42 µM
  TGI: 12.5 µM
PC-3 prostate
  GI50: 4.7 µM
  TGI: 19.7 µM
HL-60(TB) leukemia
  GI50: 2.62 µM
  TGI: 14.7 µM
CCRF-CEM leukemia
  GI50: 1.69 µM
  TGI: 5.33 µM
A498 renal
  GI50: 8.83 µM
  TGI: 18.1 µM
NCI-H522 lung
  GI50: 2.75 µM
  TGI: 11.9 µM
SN12C renal
  GI50: 4.56 µM
  TGI: 14.5 µM
UACC-257 melanoma
  GI50: 9.31 µM
  TGI: 19.4 µM
MCF7 breast
  GI50: 2.71 µM
  TGI: 11.2 µM
OVCAR-4 ovarian
  GI50: 8.29 µM
  TGI: 17.8 µM
NCI-H460 lung
  GI50: 7.81 µM
  TGI: 18.7 µM
MALME-3M melanoma
  GI50: 8.53 µM
  TGI: 17.6 µM
HT29 colon
  GI50: 2.96 µM
  TGI: 12.2 µM
SK-MEL-5 melanoma
  GI50: 6.19 µM
  TGI: 15.8 µM
U251 CNS
  GI50: 9.04 µM
  TGI: 18.9 µM
COLO 205 colon
  GI50: 9.08 µM
  TGI: 25.3 µM
A549 NSCLC
  GI50: 9.27 µM
  TGI: 21.7 µM
SK-MEL-28 melanoma
  GI50: 5.99 µM
  TGI: 15.3 µM
CAKI-1 renal
  GI50: 3.74 µM
  TGI: 13.2 µM
SF-295 CNS
  GI50: 9.01 µM
  TGI: 18.8 µM
KM12 colon
  GI50: 6.28 µM
  TGI: 18 µM
K-562 leukemia
  GI50: 3.15 µM
  TGI: 74.8 µM
UO-31 renal
  GI50: 5.43 µM
  TGI: 15.1 µM
RPMI-8226 leukemia
  GI50: 2.1 µM
  TGI: 11.3 µM
HS 578T breast
  GI50: 4.06 µM
  TGI: 26.7 µM
DU-145 prostate
  GI50: 5.4 µM
  TGI: 15.2 µM
IGROV1 ovarian
  GI50: 7.67 µM
  TGI: 16.4 µM
HCT-116 colon
  GI50: 2.38 µM
  TGI: 10.5 µM
HOP-92 NSCLC
  GI50: 6.16 µM
  TGI: 16.4 µM
HOP-62 NSCLC
  GI50: 11.4 µM
  TGI: 22.2 µM
SR leukemia
  GI50: 2 µM
  TGI: 20.3 µM
MDA-MB-231 breast
  GI50: 3.75 µM
  TGI: 13.2 µM
ACHN renal
  GI50: 3.87 µM
  TGI: 13.3 µM
MDA-MB-468 breast
  GI50: 1.96 µM
  TGI: 6.71 µM
